According to patent US8952024B2, “Herbicidal pyrimidone derivatives” (E I du Pont de Nemours and Company, priority 2009, dated 2015):

Tests used:
Assay in all cases: Test B pre-/postemergence plant response
Type in all cases: in vivo
kochia (Kochia scoparia) = conditions: Postemergence; for Plant response rating, Kochia: scale 0 (no effect) to 100 (complete control)
Procedure, shortened: (§1)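 Visual injury, 0–100 scale (100 = complete control), rated against controls after 13 to 15 days in greenhouse. Pre-emergence: seeds in loam/sand soil, treated at planting. Post-emergence: 1- to 4-leaf plants (2 to 18 cm) in peat/vermiculite medium. Compounds formulated in non-phytotoxic solvent with surfactant.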

wild oat (Avena fatua) = tested on: wild oat (Avena fatua)
Procedure, shortened: as §1

[1] = tested on: pigweed (Amaranthus retroflexus)
Procedure, shortened: as §1

[2] = tested on: lambsquarters (Chenopodium album)
Procedure, shortened: as §1

[3] = tested on: johnsongrass (Sorghum halepense)
Procedure, shortened: as §1

[4] = tested on: wheat (Triticum aestivum)
Procedure, shortened: as §1

corn (Zea mays) = tested on: corn (Zea mays)
Procedure, shortened: as §1

[5] = tested on: woolly cupgrass (Eriochloa villosa)
Procedure, shortened: as §1

[6] = tested on: velvetleaf (Abutilon theophrasti)
Procedure, shortened: as §1

[7] = tested on: large crabgrass (Digitaria sanguinalis)
Procedure, shortened: as §1

soybean (Glycine max) = tested on: soybean (Glycine max)
Procedure, shortened: as §1

[8] = tested on: Surinam grass (Brachiaria decumbens)
Procedure, shortened: as §1

[9] = tested on: Italian ryegrass (Lolium multiflorum)
Procedure, shortened: as §1

[10] = tested on: blackgrass (Alopecurus myosuroides)
Procedure, shortened: as §1

[11] = tested on: goosegrass (Eleusine indica)
Procedure, shortened: as §1

[12] = tested on: yellow nutsedge (Cyperus esculentus)
Procedure, shortened: as §1

[13] = tested on: ragweed (common ragweed, Ambrosia elatior)
Procedure, shortened: as §1

[14] = tested on: downy bromegrass (Bromus tectorum)
Procedure, shortened: as §1

[15] = 250 g ai/ha, Preemergence, 0 to 100 scale
[16] = Postemergence, 62 g ai/ha, scale 0 (no effect) to 100 (complete control), 13 to 15 days
[17] = Postemergence, 125 g ai/ha, visual rating after 13 to 15 days, scale 0 (no effect) to 100 (complete control)
[18] = Preemergence, 31 g ai/ha, scale 0 to 100 (0 no effect, 100 complete control)
[19] = Preemergence, 125 g ai/ha, 0 to 100 scale
[20] = Postemergence, 250 g ai/ha, scale 0 to 100
[21] = Preemergence, 62 g ai/ha, scale 0 to 100, 0 no effect, 100 complete control
[22] = Postemergence, 31 g ai/ha, scale 0 to 100 (0 no effect, 100 complete control)

Cc1ccc(-n2c(-c3cccc(Cl)c3)ncc(C(=O)C3=C(O)CCCC3=O)c2=O)cc1 [Compound 39]
Plant response rating, Kochia (kochia (Kochia scoparia); 62 g ai/ha, 13 to 15 days): 45 | Plant response rating, Kochia (kochia (Kochia scoparia); 125 g ai/ha, visual rating after 13 to 15 days): 60 | Kochia plant response rating (kochia (Kochia scoparia); 250 g ai/ha, scale 0 to 100): 95 | Plant response rating, Oat, Wild (wild oat (Avena fatua); [15]): 0 | Plant response rating, Oat, Wild (wild oat (Avena fatua); [16]): 20 | Plant response rating, Oat, Wild (wild oat (Avena fatua); [17]): 30 | Plant response rating, Oat, Wild (wild oat (Avena fatua); [18]): 0 | Oat, Wild plant response rating (wild oat (Avena fatua); [19]): 0 | Plant response rating, Pigweed [1, 15]: 100 | Plant response rating, Pigweed [1, 16]: 100 | Plant response rating, Pigweed [1, 17]: 100 | Plant response rating, Pigweed [1, 18]: 90 | Pigweed plant response rating [1, 19]: 100 | Plant response rating, Lambsquarters [2, 15]: 100 | Plant response rating, Lambsquarters [2, 16]: 95 | Plant response rating, Lambsquarters [2, 17]: 100 | Lambsquarters plant response rating [2, 20]: 100 | Plant response rating, Lambsquarters [2, 18]: 100 | Plant response rating, Lambsquarters [2, 21]: 100 | Lambsquarters plant response rating [2, 19]: 100 | Plant response rating, Johnsongrass [3, 15]: 75 | Plant response rating, Johnsongrass [3, 16]: 65 | Plant response rating, Johnsongrass [3, 17]: 90 | Johnsongrass plant response rating [3, 20]: 98 | Plant response rating, Johnsongrass [3, 18]: 0 | Plant response rating, Johnsongrass [3, 21]: 60 | Johnsongrass plant response rating [3, 19]: 65 | Plant response rating, Wheat [4, 15]: 0 | Plant response rating, Wheat [4, 16]: 5 | Plant response rating, Wheat [4, 17]: 5 | Plant response rating, Wheat [4, 18]: 0 | Wheat plant response rating [4, 19]: 0 | Plant response rating, Corn (corn (Zea mays); [15]): 0 | Plant response rating, Corn (corn (Zea mays); [22]): 25 | Plant response rating, Corn (corn (Zea mays); [16]): 45 | Plant response rating, Corn (corn (Zea mays); [17]): 45 | Corn plant response rating (corn (Zea mays); [20]): 65 | Plant response rating, Corn (corn (Zea mays); [18]): 0 | Plant response rating, Corn (corn (Zea mays); [21]): 0 | Corn plant response rating (corn (Zea mays); [19]): 0 | Plant response rating, Cupgrass, Woolly [5, 15]: 10 | Plant response rating, Cupgrass, Woolly [5, 22]: 65 | Plant response rating, Cupgrass, Woolly [5, 16]: 85 | Plant response rating, Cupgrass, Woolly [5, 17]: 85 | Cupgrass, Woolly plant response rating [5, 20]: 90 | Plant response rating, Cupgrass, Woolly [5, 18]: 0 | Plant response rating, Cupgrass, Woolly [5, 21]: 0 | Cupgrass, Woolly plant response rating [5, 19]: 0 | Plant response rating, Velvetleaf [6, 15]: 98 | Plant response rating, Velvetleaf [6, 16]: 80 | Plant response rating, Velvetleaf [6, 17]: 80 | Plant response rating, Velvetleaf [6, 18]: 15 | Velvetleaf plant response rating [6, 19]: 75 | Plant response rating, Crabgrass, Large [7, 15]: 100 | Plant response rating, Crabgrass, Large [7, 22]: 75 | Plant response rating, Crabgrass, Large [7, 16]: 80 | Plant response rating, Crabgrass, Large [7, 17]: 85 | Crabgrass, Large plant response rating [7, 20]: 90 | Plant response rating, Crabgrass, Large [7, 18]: 55 | Plant response rating, Crabgrass, Large [7, 21]: 95 | Crabgrass, Large plant response rating [7, 19]: 100 | Plant response rating, Soybean (soybean (Glycine max); [15]): 0 | Plant response rating, Soybean (soybean (Glycine max); [16]): 95 | Plant response rating, Soybean (soybean (Glycine max); [17]): 98 | Plant response rating, Soybean (soybean (Glycine max); [18]): 0 | Soybean plant response rating (soybean (Glycine max); [19]): 0 | Plant response rating, Surinam Grass [8, 15]: 15 | Plant response rating, Surinam Grass [8, 16]: 65 | Plant response rating, Surinam Grass [8, 17]: 65 | Plant response rating, Surinam Grass [8, 18]: 0 | Surinam Grass plant response rating [8, 19]: 10 | Plant response rating, Ryegrass, Italian [9, 15]: 0 | Plant response rating, Ryegrass, Italian [9, 16]: 5 | Plant response rating, Ryegrass, Italian [9, 17]: 5 | Plant response rating, Ryegrass, Italian [9, 18]: 0 | Ryegrass, Italian plant response rating [9, 19]: 0 | Plant response rating, Blackgrass [10, 15]: 0 | Plant response rating, Blackgrass [10, 22]: 0 | Plant response rating, Blackgrass [10, 16]: 0 | Plant response rating, Blackgrass [10, 17]: 0 | Blackgrass plant response rating [10, 20]: 20 | Plant response rating, Blackgrass [10, 18]: 0 | Plant response rating, Blackgrass [10, 21]: 0 | Blackgrass plant response rating [10, 19]: 0 | Plant response rating, Goosegrass [11, 15]: 100 | Plant response rating, Goosegrass [11, 16]: 55 | Plant response rating, Goosegrass [11, 17]: 65 | Goosegrass plant response rating [11, 20]: 75 | Plant response rating, Goosegrass [11, 18]: 85 | Goosegrass plant response rating [11, 19]: 100 | Plant response rating, Nutsedge, Yellow [12, 15]: 10 | Plant response rating, Nutsedge, Yellow [12, 16]: 0 | Plant response rating, Nutsedge, Yellow [12, 17]: 15 | Plant response rating, Nutsedge, Yellow [12, 18]: 0 | Nutsedge, Yellow plant response rating [12, 19]: 0 | Plant response rating, Ragweed [13, 15]: 95 | Plant response rating, Ragweed [13, 16]: 85 | Plant response rating, Ragweed [13, 17]: 95 | Plant response rating, Ragweed [13, 18]: 0 | Ragweed plant response rating [13, 19]: 75 | Plant response rating, Bromegrass, Downy [14, 15]: 0 | Plant response rating, Bromegrass, Downy [14, 22]: 0 | Plant response rating, Bromegrass, Downy [14, 16]: 0 | Plant response rating, Bromegrass, Downy [14, 17]: 0 | Bromegrass, Downy plant response rating [14, 20]: 0 | Plant response rating, Bromegrass, Downy [14, 18]: 0 | Plant response rating, Bromegrass, Downy [14, 21]: 0 | Bromegrass, Downy plant response rating [14, 19]: 0
